The inhibition is how much of the control response was suppressed.

Consider 10 compounds from PMC9927415, “Tyrosine Kinase Inhibitors Display Potent Activity against Cryptosporidium parvum” (Microbiology Spectrum, 2022).

Experiment in all cases: KINOMEscan competitive binding
One experiment has as its target T1, PDPK1 (Homo sapiens, UniProt O15530).
T1 construct: purchased DiscoverX (KINOMEscan)
T1 sequence (O15530 1-556): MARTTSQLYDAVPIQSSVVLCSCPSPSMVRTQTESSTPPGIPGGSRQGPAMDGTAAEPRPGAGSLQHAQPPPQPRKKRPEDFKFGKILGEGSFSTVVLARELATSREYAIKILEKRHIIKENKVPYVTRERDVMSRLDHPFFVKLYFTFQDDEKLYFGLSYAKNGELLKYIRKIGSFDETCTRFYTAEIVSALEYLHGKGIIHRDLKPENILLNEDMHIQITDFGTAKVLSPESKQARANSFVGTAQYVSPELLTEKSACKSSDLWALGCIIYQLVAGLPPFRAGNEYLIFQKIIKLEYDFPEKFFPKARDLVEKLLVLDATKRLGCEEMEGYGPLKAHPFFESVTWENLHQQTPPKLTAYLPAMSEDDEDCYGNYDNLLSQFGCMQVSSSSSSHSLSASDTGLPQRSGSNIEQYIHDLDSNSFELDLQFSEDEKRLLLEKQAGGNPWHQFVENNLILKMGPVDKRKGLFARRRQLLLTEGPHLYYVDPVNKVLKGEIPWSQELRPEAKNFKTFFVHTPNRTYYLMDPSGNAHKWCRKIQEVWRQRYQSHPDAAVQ
Particulars: n=1, read-out: Percent inhibition, PDPK1.

Another experiment deals with T2, PKMYT1 (Homo sapiens, UniProt Q99640).
T2 construct: purchased DiscoverX (KINOMEscan)
T2 sequence (Q99640 1-499): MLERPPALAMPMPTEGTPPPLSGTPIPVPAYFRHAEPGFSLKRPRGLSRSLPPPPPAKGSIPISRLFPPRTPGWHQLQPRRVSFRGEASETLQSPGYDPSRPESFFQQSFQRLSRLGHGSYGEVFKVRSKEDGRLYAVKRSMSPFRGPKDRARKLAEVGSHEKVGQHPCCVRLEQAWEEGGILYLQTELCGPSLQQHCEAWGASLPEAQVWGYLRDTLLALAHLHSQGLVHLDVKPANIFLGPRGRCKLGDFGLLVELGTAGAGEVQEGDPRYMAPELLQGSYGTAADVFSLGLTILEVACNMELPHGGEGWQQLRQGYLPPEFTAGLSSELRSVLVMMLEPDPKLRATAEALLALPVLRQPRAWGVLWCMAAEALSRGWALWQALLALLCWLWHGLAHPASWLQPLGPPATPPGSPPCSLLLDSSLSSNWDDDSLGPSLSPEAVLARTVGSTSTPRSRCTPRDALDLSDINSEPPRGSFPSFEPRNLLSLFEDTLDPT
The settings on record: n=1, read-out: Percent inhibition, PKMYT1.

The target of the next experiment is T3, PRKCH (Homo sapiens, UniProt P24723).
T3 construct: purchased DiscoverX (KINOMEscan)
The settings on record: n=1, read-out: Percent inhibition, PRKCH.

The next experiment addresses T4, TNK1 (Homo sapiens, UniProt Q13470).
T4 construct: purchased DiscoverX (KINOMEscan)
T4 sequence (Q13470 1-666): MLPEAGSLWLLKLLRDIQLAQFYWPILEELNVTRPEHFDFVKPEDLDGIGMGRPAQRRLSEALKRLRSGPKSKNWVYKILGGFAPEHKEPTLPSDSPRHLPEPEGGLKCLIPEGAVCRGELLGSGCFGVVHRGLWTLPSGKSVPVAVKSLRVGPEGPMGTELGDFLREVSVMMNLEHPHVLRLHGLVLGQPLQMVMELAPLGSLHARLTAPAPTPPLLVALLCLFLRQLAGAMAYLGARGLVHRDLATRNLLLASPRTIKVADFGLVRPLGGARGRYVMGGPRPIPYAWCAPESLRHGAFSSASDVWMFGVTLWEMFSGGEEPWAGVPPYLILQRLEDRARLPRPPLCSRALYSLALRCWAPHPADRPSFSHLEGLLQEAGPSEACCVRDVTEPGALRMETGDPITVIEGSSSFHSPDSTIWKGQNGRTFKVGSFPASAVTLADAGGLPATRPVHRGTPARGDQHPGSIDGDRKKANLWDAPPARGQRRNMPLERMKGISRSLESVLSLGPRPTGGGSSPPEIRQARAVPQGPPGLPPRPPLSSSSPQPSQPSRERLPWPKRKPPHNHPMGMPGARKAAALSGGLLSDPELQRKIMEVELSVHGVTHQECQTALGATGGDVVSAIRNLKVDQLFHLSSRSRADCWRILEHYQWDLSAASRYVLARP
The settings on record: n=1, read-out: Percent inhibition, TNK1.

The next experiment concerns the target T5, TYRO3 (Homo sapiens, UniProt Q06418).
T5 construct: purchased DiscoverX (KINOMEscan)
T5 sequence (Q06418 41-890): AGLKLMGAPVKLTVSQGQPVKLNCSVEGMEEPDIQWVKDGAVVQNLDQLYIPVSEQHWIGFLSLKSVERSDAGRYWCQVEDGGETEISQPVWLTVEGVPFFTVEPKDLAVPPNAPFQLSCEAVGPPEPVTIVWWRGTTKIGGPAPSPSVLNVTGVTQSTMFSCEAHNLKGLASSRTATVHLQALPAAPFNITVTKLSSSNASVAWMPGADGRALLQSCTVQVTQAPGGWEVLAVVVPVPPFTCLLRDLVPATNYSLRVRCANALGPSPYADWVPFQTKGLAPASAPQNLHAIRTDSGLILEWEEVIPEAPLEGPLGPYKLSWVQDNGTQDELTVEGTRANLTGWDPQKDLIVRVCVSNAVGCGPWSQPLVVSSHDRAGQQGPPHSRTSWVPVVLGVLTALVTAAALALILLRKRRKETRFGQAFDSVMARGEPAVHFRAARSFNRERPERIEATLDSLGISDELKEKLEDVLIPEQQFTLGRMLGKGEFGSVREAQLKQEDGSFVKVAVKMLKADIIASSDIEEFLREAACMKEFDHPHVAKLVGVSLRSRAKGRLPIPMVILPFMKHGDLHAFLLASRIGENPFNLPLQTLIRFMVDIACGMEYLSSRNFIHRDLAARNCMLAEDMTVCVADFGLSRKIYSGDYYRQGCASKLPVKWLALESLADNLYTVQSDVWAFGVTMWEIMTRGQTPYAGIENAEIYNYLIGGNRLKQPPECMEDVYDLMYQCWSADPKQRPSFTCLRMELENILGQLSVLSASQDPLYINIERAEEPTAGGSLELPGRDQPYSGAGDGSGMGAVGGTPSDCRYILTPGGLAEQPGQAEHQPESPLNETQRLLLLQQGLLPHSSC
The settings on record: n=1, read-out: Percent inhibition, TYRO3.

T3 sequence (P24723 whole entry): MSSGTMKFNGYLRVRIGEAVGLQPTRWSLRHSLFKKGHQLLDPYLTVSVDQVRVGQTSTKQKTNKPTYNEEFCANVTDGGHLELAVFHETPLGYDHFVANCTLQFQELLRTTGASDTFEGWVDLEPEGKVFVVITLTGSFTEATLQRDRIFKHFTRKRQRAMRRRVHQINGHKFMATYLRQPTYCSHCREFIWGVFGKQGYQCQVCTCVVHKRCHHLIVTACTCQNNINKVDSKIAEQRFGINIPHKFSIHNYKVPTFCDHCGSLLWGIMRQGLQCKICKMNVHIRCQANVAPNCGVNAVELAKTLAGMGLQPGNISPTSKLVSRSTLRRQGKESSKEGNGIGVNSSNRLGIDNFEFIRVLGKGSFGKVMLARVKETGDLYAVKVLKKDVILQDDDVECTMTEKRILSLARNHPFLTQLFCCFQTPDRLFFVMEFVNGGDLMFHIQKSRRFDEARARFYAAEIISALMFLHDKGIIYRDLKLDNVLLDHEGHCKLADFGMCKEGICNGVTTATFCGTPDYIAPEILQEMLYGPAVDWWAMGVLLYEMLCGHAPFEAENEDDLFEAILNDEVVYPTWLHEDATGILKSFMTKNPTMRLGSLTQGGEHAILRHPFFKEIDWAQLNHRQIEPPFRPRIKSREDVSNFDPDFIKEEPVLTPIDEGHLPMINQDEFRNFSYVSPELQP

As to `CN1CCN(c2ccc(Nc3nccc(-c4cnn5ncccc45)n3)cc2C#N)CC1` [Compound 1], the inhibition at 10 µM at PDPK1 amounted to 0%; at PKMYT1, 0%; on PRKCH, 83.4%; at TNK1, 87.1%; on TYRO3, 70.2%.
As to `COc1ccc(Nc2nccc(-c3cnn4ncccc34)n2)cc1` [Compound 2], the inhibition at 10 µM at PDPK1 was 0%; at PKMYT1, 0%; at PRKCH it was 0%; at TNK1 it was 90.2%; at TYRO3, 0%.
In the case of `Cc1ccc(O)cc1Nc1ccnc(Nc2cccc(C(N)=O)c2)n1` [Compound 3], the inhibition at 10 µM on PDPK1 was 0%; on PKMYT1, 97.9%; at PRKCH it was 0%; at TNK1, 80.1%; at TYRO3, 100%.
With `Cc1ccc(O)cc1N(C)c1ccnc(Nc2cccc(S(N)(=O)=O)c2)n1` [Compound 4], the inhibition at 10 µM came out at 0% on PDPK1; 100% on PKMYT1; 0% at PRKCH; 87.7% at TNK1; 100% at TYRO3.
For `Fc1cccc(COc2ccc(Nc3ncnc4c3CN(CCN3CCOCC3)CC4)cc2Cl)c1` [Compound 6], the inhibition at 10 µM on PDPK1, at PKMYT1, at PRKCH, on TNK1 and at TYRO3 was 0% in each case.
As to `COc1cc(Nc2nccc(-c3sc(N)nc3-c3cccc(NC(=O)c4c(F)cccc4F)c3)n2)cc(OC)c1OC` [Compound 7], the inhibition at 10 µM amounted to 68.3% on PDPK1; 0% on PKMYT1; 87.7% at PRKCH; 100% at TNK1; 100% on TYRO3.
With `C[C@@H](Oc1cc(-c2cnc3ccccn23)sc1C(N)=O)c1ccccc1Cl` [Compound 8], the inhibition at 10 µM worked out at 0% on PDPK1; 81.5% at PKMYT1; 0% on PRKCH; 0% at TNK1; 0% at TYRO3.
For the compound `c1ccc(COc2cccc(-c3ccnc4[nH]ccc34)c2)cc1` [Compound 9], the inhibition at 10 µM on PDPK1 amounted to 0%; at PKMYT1 it was 0%; on PRKCH, 87.9%; at TNK1, 0%; at TYRO3, 0%.
As for `Clc1ccc(Nc2ncc(-c3ccccc3)s2)cc1` [Compound 10], the inhibition at 10 µM on PDPK1, on PKMYT1, at PRKCH, at TNK1 and on TYRO3 was 0% in each case.
Regarding `Nc1ncc2c(-c3ccncc3)c[nH]c2n1` [Compound 11], the inhibition at 10 µM at PDPK1 was 79.6%; at PKMYT1, 0%; on PRKCH, 0%; at TNK1, 0%; at TYRO3, 0%.
